Measured values taken from ChEMBL document CHEMBL6096702, “Discovery of a Novel p38α-MK2 Complex Inhibitor as a Potential Choice for Autoimmune Diseases” (J Med Chem, 2025).
≈ marks a conversion by molar mass, not a printed value. Calls of active or inactive are those of the source. No cut-off for these calls is given here.

Legend:
[1] = Selectivity ratio of IC50 for inhibition of N-terminal GST-tagged wildtype human P38alpha (4 to 152 residues) extracted from Escherichia coli/GST-tagged PRAK (unknown origin) to IC50 for inhibition of N-terminal GST-tagged wildtype human P38alpha (4 to 152 residues) extracted from Escherichia coli/GST-tagged MK2 (unknown origin)
[2] = Inhibition of N-terminal GST-tagged wildtype human P38alpha (4 to 152 residues) extracted from Escherichia coli/GST-tagged PRAK (unknown origin) assessed as reduction in HSP27 phosphorylation incubated for 2 hrs in presence of ATP and HSP27-FITC peptide by fluorescence polarization based IMAP assay
[3] = Inhibition of N-terminal GST-tagged wildtype human P38alpha (4 to 152 residues) extracted from Escherichia coli/GST-tagged MK2 (unknown origin) assessed as reduction in HSP27 phosphorylation incubated for 2 hrs in presence of ATP and HSP27-FITC peptide by fluorescence polarization based IMAP assay
[4] = Half-life in male Sprague-Dawley rat at 1 mg/kg, iv measured after 24 hrs by LC-MS/MS analysis; assay type: ADME, organism-based; conditions: in vivo
[5] = Clearance in male Sprague-Dawley rat at 1 mg/kg, iv measured after 24 hrs by LC-MS/MS analysis; assay type: ADME, organism-based; conditions: in vivo
[6] = Volume of distribution at steady state in male Sprague-Dawley rat at 1 mg/kg, iv measured after 24 hrs by LC-MS/MS analysis; assay type: ADME, organism-based; conditions: in vivo, read-out: Vdss
[7] = AUClast in male Sprague-Dawley rat at 2 mg/kg, po measured after 24 hrs by LC-MS/MS analysis; assay type: ADME, organism-based; conditions: in vivo
[8] = Cmax in male Sprague-Dawley rat at 2 mg/kg, po measured after 24 hrs by LC-MS/MS analysis; assay type: ADME, organism-based; conditions: in vivo
[9] = Oral bioavailability in male Sprague-Dawley rat at 2 mg/kg measured after 24 hrs by LC-MS/MS analysis; assay type: ADME, organism-based; conditions: in vivo
[10] = Inhibition of LPS-induced TNF-alpha production in human PBMC cells preincubated with compound for 1 hrs followed by LPS addition and measured after 4 hrs; assay type: functional, cell-based
[11] = MRT in male Sprague-Dawley rat at 1 mg/kg, iv measured after 24 hrs by LC-MS/MS analysis; assay type: ADME, organism-based; conditions: in vivo
[12] = AUClast in male Sprague-Dawley rat at 1 mg/kg, iv measured after 24 hrs by LC-MS/MS analysis; assay type: ADME, organism-based; conditions: in vivo
[13] = Inhibition of LPS-induced IL-1beta production in human PBMC cells preincubated with compound for 1 hrs followed by LPS addition and measured after 4 hrs; assay type: functional, cell-based
[14] = Solubility of compound in PBS at pH 7.4 measured after 4 to 24 hrs by LC-MS analysis; assay type: physicochemical; conditions: time 4-24 hrs
[15] = Cmax in male Beagle dog at 2 mg/kg, po measured after 24 hrs by LC-MS/MS analysis; assay type: ADME, organism-based, Canis lupus familiaris; conditions: in vivo
[16] = Volume of distribution at steady state in male Beagle dog at 1 mg/kg, iv measured after 24 hrs by LC-MS/MS analysis; assay type: ADME, organism-based, Canis lupus familiaris; conditions: in vivo, read-out: Vdss
[17] = Clearance in male Beagle dog at 1 mg/kg, iv measured after 24 hrs by LC-MS/MS analysis; assay type: ADME, organism-based, Canis lupus familiaris; conditions: in vivo
[18] = MRT in male Beagle dog at 1 mg/kg, iv measured after 24 hrs by LC-MS/MS analysis; assay type: ADME, organism-based, Canis lupus familiaris; conditions: in vivo
Rattus norvegicus = assay: Antiarthritic activity in Mycobacterium tuberculosis H37R-induced female Lewis rat model of arthritis assessed as reduction in paw inflammation at 3 mg/kg, po administered twice daily for 15 days starting from day 13 after adjuvant administration by micro-CT analysis; assay type: functional, organism-based; conditions: time 15.0 day
[19] = AUClast in male Beagle dog at 2 mg/kg, po measured after 24 hrs by LC-MS/MS analysis; assay type: ADME, organism-based, Canis lupus familiaris; conditions: in vivo
[20] = Half-life in male Beagle dog at 1 mg/kg, iv measured after 24 hrs by LC-MS/MS analysis; assay type: ADME, organism-based, Canis lupus familiaris; conditions: in vivo
PBMC [21] = assay: Inhibition of LPS-induced IL-8 production in human PBMC cells at 0.01 to 10000 nM preincubated with compound for 1 hrs followed by LPS addition and measured after 4 hrs; assay type: functional, cell-based; conditions: dose 0.01-10000 nM, time 5.0 hrs
[22] = AUClast in male Beagle dog at 1 mg/kg, iv measured after 24 hrs by LC-MS/MS analysis; assay type: ADME, organism-based, Canis lupus familiaris; conditions: in vivo
PBMC [23] = assay: Inhibition of LPS-induced IL-6 production in human PBMC cells at 0.01 to 10000 nM preincubated with compound for 1 hrs followed by LPS addition and measured after 4 hrs; assay type: functional, cell-based; conditions: dose 0.01-10000 nM, time 5.0 hrs
[24] = Oral bioavailability in male Beagle dog at 2 mg/kg measured after 24 hrs by LC-MS/MS analysis; assay type: ADME, organism-based, Canis lupus familiaris; conditions: in vivo
[25] = AUC (0 to 24 hrs) in female Lewis rat at 3 mg/kg, po measured after 24 hrs by LC-MS/MS analysis; assay type: ADME, organism-based; conditions: in vivo
[26] = Half-life in female Lewis rat at 3 mg/kg, po measured after 24 hrs by LC-MS/MS analysis; assay type: ADME, organism-based; conditions: in vivo
[27] = Cmax in female Lewis rat at 3 mg/kg, po measured after 24 hrs by LC-MS/MS analysis; assay type: ADME, organism-based; conditions: in vivo
PBMC [28] = assay: Inhibition of LPS-induced TNF-alpha production in human PBMC cells at 0.01 to 10000 nM preincubated with compound for 1 hrs followed by LPS addition and measured after 4 hrs; assay type: functional, cell-based; conditions: dose 0.01-10000 nM, time 5.0 hrs
[29] = Cmax in female Lewis rat at 1 mg/kg, po measured after 24 hrs by LC-MS/MS analysis; assay type: ADME, organism-based; conditions: in vivo
[30] = Half-life in female Lewis rat at 1 mg/kg, po measured after 24 hrs by LC-MS/MS analysis; assay type: ADME, organism-based; conditions: in vivo
[31] = AUC (0 to 24 hrs) in female Lewis rat at 1 mg/kg, po measured after 24 hrs by LC-MS/MS analysis; assay type: ADME, organism-based; conditions: in vivo

Compound | Ratio IC50 [1] | IC50 [2] | IC50 [3] | half-life [4] | clearance [5] | Vd [6] | AUC(0-t) at 24 h [7] | Cmax [8] | bioavailability [9] | MRT [11] | AUC(0-t) at 24 h [12] | other results
Cc1cnc(-c2cccc(C(C)(C)O)c2F)cc1-n1c(C)cc(O[C@@H](C)c2ncc(F)cc2F)c(Cl)c1=O | 315 | 504 nM | 1.6 nM | – | – | – | – | – | – | – | – | –
Cc1cnc(-c2cccc(C(C)(C)O)c2F)c(F)c1-n1c(C)cc(OCc2ncc(F)cc2F)c(Cl)c1=O | 125 | 1 nM | – | 0.9 h | 16.3 mL/min/kg | 1.1 L/kg | 861 ng·h/mL | 283 ng/mL | 40% | 1.2 h | 1080 ng·h/mL | IC50 [10]: < 0.1 nM; IC50 [13]: 0.02 nM
Cc1cnc(-c2cccc(C(C)(C)O)c2)c(F)c1-n1c(C)cc(OCc2ncc(F)cc2F)c(Cl)c1=O | 1010 | 506 nM | 0.5 nM | 1.5 h | 10 mL/min/kg | 0.7 L/kg | 1980 ng·h/mL | 738 ng/mL | 55% | 1.2 h | 1800 ng·h/mL | –
Cc1cnc(-c2cccc(C(C)(C)O)c2F)c(F)c1-n1c(C)cc(O[C@@H](C)c2ncc(F)cc2F)c(C)c1=O | 246 | 394 nM | 1.6 nM | – | – | – | – | – | – | – | – | –
Cc1cnc(-c2cccc(C(C)(C)O)c2)c(F)c1-n1c(C)cc(O[C@@H](C)c2ncc(F)cc2F)c(Cl)c1=O | 1990 | 3780 nM | 1.9 nM | 2.2 h | 5 mL/min/kg | 0.9 L/kg | 8050 ng·h/mL | 1030 ng/mL | 125% | 3 h | 3230 ng·h/mL | –
Cc1cnc(-c2ccnc(C(C)(C)O)n2)cc1-n1c(C)cc(OCc2ncc(F)cc2F)c(Cl)c1=O [ZUNSEMETINIB] | 971 | 6410 nM | 6.6 nM | 1.1 h | 13.1 mL/min/kg | 0.8 L/kg | 1830 ng·h/mL | 415 ng/mL | 71% | 1.1 h | 1280 ng·h/mL | solubility [14]: 5.6 µg/mL (≈ 10.9 µM); Cmax [15]: 587 ng/mL; Vd [16]: 1.5 L/kg; clearance [17]: 7.5 mL/min/kg; MRT [18]: 3.4 h; Activity (Rattus norvegicus): inactive; AUC(0-t) at 24 h [19]: 3230 ng·h/mL; half-life [20]: 3.4 h; inhibition (PBMC [21]): Active; AUC(0-t) at 24 h [22]: 2230 ng·h/mL; inhibition (PBMC [23]): Active; bioavailability [24]: 73%; AUC(0-t) at 24 h [25]: 2520 ng·h/mL; half-life [26]: 1.6 h; Cmax [27]: 781 ng/mL; inhibition (PBMC [28]): Active; Cmax [29]: 217 ng/mL; half-life [30]: 1.9 h; AUC(0-t) at 24 h [31]: 682 ng·h/mL
Cc1cnc(-c2cccc(C(C)(C)O)n2)cc1-n1c(C)cc(OCc2ncc(F)cc2F)c(Cl)c1=O | 333 | 999 nM | 3 nM | – | – | – | – | – | – | – | – | –
Cc1cnc(-c2ccnc(C(C)(C)O)n2)c(F)c1-n1c(C)cc(OCc2ncc(F)cc2F)c(C)c1=O | 1330 | 5320 nM | 4 nM | 0.9 h | 13.9 mL/min/kg | 0.9 L/kg | 1310 ng·h/mL | 496 ng/mL | 56% | 1.1 h | 1170 ng·h/mL | –
Cc1cnc(-c2cccc(C(C)(C)O)c2)cc1-n1c(C)cc(OCc2ncc(F)cc2F)c(Cl)c1=O | 368 | 1950 nM | 5.3 nM | – | – | – | – | – | – | – | – | –
Cc1cnc(-c2cc(C(C)(C)O)ccc2F)c(F)c1-n1c(C)cc(OCc2ncc(F)cc2F)c(Cl)c1=O | 0.2 | 2.9 nM | 17.2 nM | – | – | – | – | – | – | – | – | –
Cc1cnc(-c2cccc(C(C)(C)O)c2F)c(F)c1-n1c(C)cc(O[C@@H](C)c2ncc(F)cc2F)c(Cl)c1=O | 33 | 23 nM | 0.7 nM | – | – | – | – | – | – | – | – | –
Cc1cnc(-c2cccc(C(C)(C)O)c2F)c(C)c1-n1c(C)cc(O[C@@H](C)c2ncc(F)cc2F)c(Cl)c1=O | 109 | 1400 nM | 12.8 nM | – | – | – | – | – | – | – | – | –
Cc1ccc(-c2ccnc(C(C)(C)O)n2)cc1-n1c(C)cc(OCc2ncc(F)cc2F)c(Cl)c1=O | 805 | 2900 nM | 3.6 nM | – | – | – | – | – | – | – | – | –
